Legend:
Recombinant human BACE1 = biological target: T1, Recombinant human BACE1 (Homo sapiens, UniProt P56817); experiment: Assay of BACE1 inhibiting activity; assay type: biochemical; details: 50% inhibitory concentration against enzymatic activity, pH 5.0, 30° C., 3 hours
T1 construct: purchased R&D Systems
Procedure: 48.5 μL of substrate peptide solution (Biotin-XSEVNLDAEFRHDSGC-Eu: Xεε-amino-n-capronic acid, Eu=Europium cryptate) was added to each well of 96-hole half-area plate (a black plate: Costar Corporation), and after addition of 0.5 μl of the test compound (dissolved in […]) and 1 μl of Recombinant human BACE1 (R&D Systems), the reaction mixture was incubated at 30° C. for 3 hours. The substrate peptide was synthesized by reacting Cryptate TBPCOOH mono SMP (CIS bio international) with Biotin-XSEVNLDAEFRHDSGC (Peptide Institute, Inc.). The final concentrations of the substrate peptide and Recombinant human BACE1 were adjusted to 18 nM and 7.4 nM respectively, and the reaction was performed in sodium acetate buffer (50 mM sodium acetate, pH 5.0, 0.008% Triton X-100). After the completion of reaction, 50 μl of 8.0 μg/ml Streptavidin-XL665 (CIS bio international) dissolved in phosphate buffer (150 mM K2HPO4—KH2PO4, pH 7.0, 0.008% Triton X-100, 0.8 M KF) was added to each well and left stand at 30° C. for an hour. Then, fluorescence intensity was measured (excitation wavelength: 320 nm, measuring wavelength: 620 nm and 665 nm) using Wallac 1420 multilabel counter (Perkin Elmer life sciences). Enzymatic activity was determined from counting ratio of each wavelength (10,000×Count 665/Count 620) and 50% inhibitory concentration against the enzymatic activity was calculated.

[1] = test system: Neuroblastoma SH-SY5Y cells (SH/APPwt) with human wild-type β-APP excessively expressed; experiment: Measurement of β-amyloid (Aβ) production inhibitory effect in cell; assay type: cell-based; details: amount needed to inhibit Aβ production by 50%, 24 hours incubation, Amyloid β1-40 HTRF
Procedure: Neuroblastoma SH-SY5Y cells (SH/APPwt) with human wild-type β-APP excessively expressed therein were prepared at 8×10^5 cells/mL, and 150 μl portions thereof were inoculated into each well of a 96-well culture plate (Falcon). The cells were cultured for 2 hours at 37° C. in a 5% gaseous carbon dioxide incubator. Then, a solution which had been preliminarily prepared by adding and suspending the test compound (DMSO (dimethyl sulfoxide) solution) so as to be 2 μl/50 μl medium was added to the cell sap. Namely, the final DMSO concentration was 1%, and the amount of the cell culture was 200 μl. After the incubation was performed for 24 hours from the addition of the test compound, 100 μl of the culture supernatant was collected from each fraction. The amount of the Aβ in each fraction was measured.
The […] was measured as follows. 10 μl of a homogeneous time resolved fluorescence (HTRF) measurement reagent (Amyloid β1-40 peptide; IBA Molecular Holding, S.A.) and 10 μl of the culture supernatant were put into a 384-well half area microplate (black microplate, Costar) and mixed with each other, and then left standing overnight at 4° C. while the light was shielded. Then, the fluorescence intensity (excitation wavelength: 337 nm, measurement wavelength: 620 nm and 665 nm) was measured with a Wallac 1420 multilabel counter (Perkin Elmer life sciences). The Aβ amount was determined from the count rate at each measurement wavelength (10000×Count 665/Count 620), and the amount needed to inhibit Aβ production by 50% (IC50) was calculated from at least six different dosages.

T1 sequence (P56817 46-501): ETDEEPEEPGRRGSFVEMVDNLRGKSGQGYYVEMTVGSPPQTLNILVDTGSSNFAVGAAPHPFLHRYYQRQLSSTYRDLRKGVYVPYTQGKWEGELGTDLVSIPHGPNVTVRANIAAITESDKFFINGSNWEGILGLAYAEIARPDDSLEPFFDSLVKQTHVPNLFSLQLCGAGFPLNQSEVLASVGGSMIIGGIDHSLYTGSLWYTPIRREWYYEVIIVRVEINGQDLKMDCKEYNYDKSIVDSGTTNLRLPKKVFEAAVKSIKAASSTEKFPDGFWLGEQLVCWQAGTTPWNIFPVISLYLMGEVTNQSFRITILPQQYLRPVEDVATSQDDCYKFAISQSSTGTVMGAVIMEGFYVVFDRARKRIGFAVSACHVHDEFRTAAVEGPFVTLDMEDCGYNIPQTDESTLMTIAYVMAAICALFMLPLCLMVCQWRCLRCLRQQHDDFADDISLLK

IC50 (Recombinant human BACE1) [nM]	IC50 ([1]; Homo sapiens, SH-SY5Y, 24 h) [nM]	IC50 [1] [nM]	SMILES
≤ 1000	≤ 1000		CO/C(N)=N/C(C)(c1ccc(F)cc1)c1cccc(NC(=O)c2ccc(C#N)cn2)c1 (single isomer, unassigned) [Compound 101]
≤ 1000	≤ 1000		CC#CCOc1cnc(C(=O)Nc2cccc(C/N=C(/N)SCc3cccnc3)c2)cn1 [Compound 10]
≤ 1000	≤ 1000		CC#CCOc1cnc(C(=O)Nc2cccc(C3(/N=C(/N)SC)CC3)c2)cn1 [Compound 14]
≤ 1000	≤ 1000		CC#CCOc1cnc(C(=O)Nc2ccc(F)c(C/N=C(/N)SC)c2)cn1 [Compound 16]
≤ 1000	≤ 1000		CC#CCOc1cnc(C(=O)Nc2cccc(C/N=C(/N)SCCCO)c2)cn1 [Compound 17]
≤ 1000	≤ 1000		CC#CCOc1cnc(C(=O)Nc2cccc(C(/N=C(/N)SC)c3ccc(OC)cc3)c2)cn1 (centres unmarked) [Compound 21]
	≤ 1000		COc1ccc(C(/N=C(/N)SC)c2cccc(NC(=O)c3ncc(Cl)cc3Cl)c2)cc1 (centres unmarked) [Compound 22]
	≤ 1000		COc1ccc(C(/N=C(/N)SC)c2cccc(NC(=O)c3ccc(C#N)cn3)c2)cc1 (centres unmarked) [Compound 23]
	≤ 1000		COc1ccc(C(/N=C(/N)SC)c2cccc(NC(=O)c3cnc(OC)cn3)c2)cc1 (centres unmarked) [Compound 24]
	≤ 1000		COc1cnc(C(=O)Nc2ccc(F)c(C(C)/N=C(/N)SC)c2)cn1 (centres unmarked) [Compound 26]
	≤ 1000		CS/C(N)=N\C(C)c1cc(NC(=O)c2ccc(C#N)cn2)ccc1F (centres unmarked) [Compound 27]
	≤ 1000		CO/C(N)=N/Cc1cccc(NC(=O)c2ccc(C#N)cn2)c1 [Compound 33]
	≤ 1000		CCCO/C(N)=N\Cc1cccc(NC(=O)c2ccc(C#N)cn2)c1 [Compound 34]
	≤ 1000		COCCO/C(N)=N\Cc1cccc(NC(=O)c2ccc(C#N)cn2)c1 [Compound 35]
	≤ 1000		COCCCO/C(N)=N/Cc1cccc(NC(=O)c2ccc(C#N)cn2)c1 [Compound 37]
	≤ 1000		CO/C(N)=N\Cc1cc(NC(=O)c2ccc(C#N)cn2)ccc1F [Compound 42]
	≤ 1000		CO/C(N)=N\Cc1cc(NC(=O)c2cnc(OC)cn2)ccc1F [Compound 43]
	≤ 1000		CO/C(N)=N\C1(c2cc(NC(=O)c3ccc(C#N)cn3)ccc2F)CC1 [Compound 46]
	≤ 1000		CO/C(N)=N\C1(c2cc(NC(=O)c3cnc(OC)cn3)ccc2F)CC1 [Compound 47]
≤ 1000	≤ 1000		CO/C(N)=N/C(c1cccc(F)c1)c1cccc(NC(=O)c2ccc(C#N)cn2)c1 (centres unmarked) [Compound 51]
≤ 1000	≤ 1000		CO/C(N)=N\[C@H](c1ccc(F)cc1)c1cccc(NC(=O)c2ccc(C#N)cn2)c1 [Compound 52]
≤ 1000	≤ 1000		CO/C(N)=N/C(c1cccc(NC(=O)c2ccc(C#N)cn2)c1)c1cccc(OC)c1 (centres unmarked) [Compound 53]
≤ 1000	≤ 1000		CO/C(N)=N\C(c1cccc(NC(=O)c2ccc(C#N)cn2)c1)c1ccc2c(c1)CCO2 (centres unmarked) [Compound 54]
≤ 1000	≤ 1000		CO/C(N)=N\C(c1cccc(NC(=O)c2ccc(C#N)cn2)c1)c1ccc(OC)c(F)c1 (centres unmarked) [Compound 55]

IC50 (Recombinant human BACE1) [nM]	IC50 ([1]; Homo sapiens, SH-SY5Y, 24 h) [nM]	IC50 [1] [nM]	SMILES
≤ 1000	≤ 1000		CO/C(N)=N\C(c1ccc(OC)cc1)c1cccc(NC(=O)c2ccc(C#N)cn2)c1 (centres unmarked) [Compound 57]
≤ 1000	18		CO/C(N)=N\C(c1ccc(OC)cc1)c1cccc(NC(=O)c2cnc(OC)cn2)c1 (centres unmarked) [Compound 58]
	≤ 1000		CC#CCOc1cnc(C(=O)Nc2cccc(C(C)(C)/N=C(/N)SC)c2)cn1 [Compound 64]
≤ 1000	≤ 1000		CC#CCOc1cnc(C(=O)Nc2ccc(Oc3ccccc3)c(C/N=C(/N)SC)c2)cn1 [Compound 68]
≤ 1000	≤ 1000		CC#CCOc1cnc(C(=O)Nc2ccc(Oc3cccc(OC)c3)c(C/N=C(/N)SC)c2)cn1 [Compound 70]
≤ 1000	≤ 1000		CO/C(N)=N\c1cccc2ccc(NC(=O)c3ccc(C#N)cn3)cc12 [Compound 75]
≤ 1000	≤ 1000		CS/C(N)=N\c1c(C)ccc2ccc(NC(=O)c3ccc(C#N)cn3)cc12 [Compound 79]
	≤ 1000		CO/C(N)=N/C(C)c1cccc(NC(=O)c2ccc(C#N)cn2)c1 (centres unmarked) [Compound 82]
	≤ 1000		CO/C(N)=N/C(C)c1cccc(NC(=O)c2cnc(OC)cn2)c1 (centres unmarked) [Compound 83]
	≤ 1000		CO/C(N)=N/C(C)c1cc(NC(=O)c2ccc(C#N)cn2)ccc1F (centres unmarked) [Compound 84]
	≤ 1000		CO/C(N)=N/C(C)c1cc(NC(=O)c2cnc(OC)cn2)ccc1F (centres unmarked) [Compound 85]
≤ 1000		24	CO/C(N)=N/C(C)(c1ccc(F)cc1)c1cccc(NC(=O)c2ccc(C#N)cn2)c1 (centres unmarked) [Compound 88]
	≤ 1000		CO/C(N)=N\C(c1ccc(Cl)cc1)c1cccc(NC(=O)c2cnc(C)cn2)c1 (centres unmarked) [Compound 90]
≤ 1000	≤ 1000		CO/C(N)=N\C(c1ccc(Cl)cc1)c1cccc(NC(=O)c2ccc(C#N)cn2)c1 (centres unmarked) [Compound 91]
≤ 1000	≤ 1000		CO/C(N)=N\C(c1ccc(Cl)cc1)c1cccc(NC(=O)c2cnc(OC)cn2)c1 (centres unmarked) [Compound 92]
≤ 1000	≤ 1000		CO/C(N)=N\C(c1ccc(Cl)cc1)c1cccc(NC(=O)c2ccc(Cl)cn2)c1 (centres unmarked) [Compound 93]
32	≤ 1000		CC#CCOc1cnc(C(=O)Nc2cccc(C(/N=C(/N)OC)c3ccc(Cl)cc3)c2)cn1 (centres unmarked) [Compound 94]
≤ 1000	≤ 1000		COC(=N)NC(c1ccc(OC(C)C)cc1)c1cccc(NC(=O)c2ccc(C#N)cn2)c1 (centres unmarked) [Compound 95]
≤ 1000	≤ 1000		COC(=N)NC(c1ccc(OCc2ccccc2)cc1)c1cccc(NC(=O)c2ccc(C#N)cn2)c1 (centres unmarked) [Compound 96]
≤ 1000	≤ 1000		[2H]C([2H])([2H])Oc1cnc(C(=O)Nc2cccc(C3(/N=C(/N)OC)CC3)c2)cn1 [Compound 97]
≤ 1000	≤ 1000		CO/C(N)=N/C(C)(c1ccc(OC)cc1)c1cccc(NC(=O)c2ccc(C#N)cn2)c1 (centres unmarked) [Compound 98]
	≤ 1000		CO/C(N)=N\C(c1cccc(NC(=O)c2ccc(C#N)cn2)c1)C(F)(F)F (centres unmarked) [Compound 99]
≤ 1000	≤ 1000		[2H]C([2H])([2H])Oc1ccc(C(NC(=N)OC)c2cccc(NC(=O)c3ccc(C#N)cn3)c2)cc1 (centres unmarked) [Compound 102]

— US20120015961A1, “ISOTHIOUREA DERIVATIVES OR ISOUREA DERIVATIVES HAVING BACE1 INHIBITORY ACTIVITY” (SHIONOGI & CO., LTD., priority 2009, published 2012)
